Source: publication PMC11606603, “The membrane domains of mammalian adenylyl cyclases are lipid receptors” (eLife, 2024)
Several values for one entry are separate records, joined by “and”; a condition that tells them apart may be missing. Identical values can stand only once.

Key:
Assay type in all cases: biochemical
mAC8 = target: T1, mAC8 (Homo sapiens, UniProt P40145); experiment: AC assay, Gsα-stimulated mAC8 in membranes from transfected HEK293 cells; conditions: 20µM fatty acid concentration
T1 construct: Human mAC genes were from GenScript and fitted with a C-terminal FLAG-tag; FLAG (C); made in house; host or cells: HEK293, permanently transfected; membrane preparation
Experimental: hAC sequences were from NCBI were: ADCY1: NM_021116.3; ADCY2: NM_020546.2; ADCY3: NM_004036.4; ADCY4: NM_001198568.2; ADCY5: NM_183357.2; ADCY6: NM_015270.4; ADCY7: NM_001114.4; ADCY8: NM_001115.2; ADCY9: NM_001116.3. Human mAC genes were from GenScript and fitted with a C-terminal FLAG-tag. […] The gene was synthesized by GenScript. HEK293 cells were maintained in Dulbeccos Modified Eagle Medium (DMEM) with 10% fetal bovine serum at 37°C and 5% CO2. Transfection with AC plasmids was with PolyJet (SignaGen, Frederick, MD, USA). Permanent cell lines were generated by selection for 7 days with 600 µg/ml G418 and maintained with 300 µg/ml For membrane preparation, cells were tyrpsinized, collected by centrifugation (3000 × g, 5 min) and lysed and homogenized in 20 mM HEPES, pH 7.5, 1 mM Ethylenediaminetetraacetic acid (EDTA), 2 mM MgCl2, 1 mM Dithiothreitol (DTT), one tablet of cOmplete, EDTA-free (per 50 ml) and 250 mM sucrose by 20 strokes in a potter homogenizer on ice. Debris was removed (5 min at 1000 × g, 0°C), membranes were collected at 100,000 × g, 60 min at 0°C, suspended and stored at −80°C in 20 mM MOPS, pH 7.5, 0.5 mM EDTA, 2 mM MgCl2. […] Three cerebral cortices were dissected and homogenized in 4.5 ml cold 48 mM Tris–HCl, pH 7.4, 12 mM MgC1_2, and 0.1 mM Ethylene glycol-bis(β-aminoethyl ether)-N,N,N′,N′-tetraacetic acid (EGTA) with a Polytron hand disperser (Kinematica AG, Switzerland). […] The pellet was washed once with 5 ml 1 mM KHCO3. The final suspension in 2 ml 1 mM KHCO3 was stored in aliquots at −80°C.
In a volume of 10 μl, AC activities were measured using 1 mM ATP, 2 mM MgCl2, 3 mM creatine phosphate, 60 μg/ml creatine kinase, and 50 mM MOPS pH 7.5. The cAMP assay kit from Cisbio (Codolet, France) was used for detection according to the supplier’s instructions. For each assay, a cAMP standard curve was established. EC50 and IC50 values were calculated by GraphPad Prism version 8.4.3 for Windows, GraphPad Software, San Diego, CA, USA, https://www.graphpad.com .

mAC5 = target: T2, mAC5 (Homo sapiens, UniProt O95622); experiment: AC assay, Gsα-stimulated mAC5 in membranes from transfected HEK293 cells; conditions: 20µM fatty acid concentration
T2 construct: Human mAC genes were from GenScript and fitted with a C-terminal FLAG-tag; FLAG (C); made in house; host or cells: HEK293, permanently transfected; membrane preparation
Procedure, shortened: (§1)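 Human AC, FLAG-tagged, stably expressed in HEK293; membranes used as enzyme. 1 mM ATP, 2 mM MgCl2, ATP regeneration, MOPS pH 7.5; cAMP kit readout.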

mAC4 = target: T3, mAC4 (Homo sapiens, UniProt Q8NFM4); experiment: AC assay, Gsα-stimulated mAC4 in membranes from transfected HEK293 cells; conditions: 20 µM fatty acid; 300 nM Gsα; single experiments
T3 construct: Human mAC genes were from GenScript and fitted with a C-terminal FLAG-tag; FLAG (C); made in house; host or cells: HEK293, permanently transfected; membrane preparation
T3 sequence (Q8NFM4 1-1077): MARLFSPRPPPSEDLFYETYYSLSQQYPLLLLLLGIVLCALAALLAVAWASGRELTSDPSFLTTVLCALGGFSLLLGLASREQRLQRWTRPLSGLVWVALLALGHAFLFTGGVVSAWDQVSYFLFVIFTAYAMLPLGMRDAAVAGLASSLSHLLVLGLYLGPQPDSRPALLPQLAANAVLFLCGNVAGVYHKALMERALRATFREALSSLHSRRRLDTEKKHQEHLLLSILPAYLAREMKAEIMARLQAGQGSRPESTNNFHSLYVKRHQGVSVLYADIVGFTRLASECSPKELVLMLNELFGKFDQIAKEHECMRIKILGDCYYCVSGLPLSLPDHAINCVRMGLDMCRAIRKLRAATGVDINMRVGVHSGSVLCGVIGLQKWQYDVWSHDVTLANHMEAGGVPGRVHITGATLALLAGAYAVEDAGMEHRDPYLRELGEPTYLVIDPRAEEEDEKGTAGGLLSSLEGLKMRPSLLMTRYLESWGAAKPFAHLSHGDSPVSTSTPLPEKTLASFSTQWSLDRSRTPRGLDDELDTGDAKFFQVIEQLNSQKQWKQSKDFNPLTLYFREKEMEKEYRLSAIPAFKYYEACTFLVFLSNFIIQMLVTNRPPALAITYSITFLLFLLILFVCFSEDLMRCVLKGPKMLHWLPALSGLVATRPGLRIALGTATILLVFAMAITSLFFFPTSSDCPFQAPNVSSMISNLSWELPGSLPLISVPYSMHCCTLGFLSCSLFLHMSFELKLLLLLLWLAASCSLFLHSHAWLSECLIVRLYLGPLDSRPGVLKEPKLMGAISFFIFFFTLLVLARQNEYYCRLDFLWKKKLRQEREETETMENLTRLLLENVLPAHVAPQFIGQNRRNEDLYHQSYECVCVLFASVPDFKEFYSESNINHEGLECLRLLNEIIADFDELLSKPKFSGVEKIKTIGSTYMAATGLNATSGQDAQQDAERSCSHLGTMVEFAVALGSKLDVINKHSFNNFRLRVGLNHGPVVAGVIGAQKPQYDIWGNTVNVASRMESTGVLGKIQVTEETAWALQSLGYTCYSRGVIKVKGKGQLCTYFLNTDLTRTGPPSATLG
Procedure, shortened: as §1

mAC2 = target: T4, mAC2 (Homo sapiens, UniProt Q08462); experiment: AC assay, Gsα-stimulated mAC2 in membranes from transfected HEK293 cells
T4 construct: Human mAC genes were from GenScript and fitted with a C-terminal FLAG-tag; FLAG (C); made in house; host or cells: HEK293, permanently transfected; membrane preparation
Procedure, shortened: as §1

mAC9 = target: T5, mAC9 (Homo sapiens, UniProt O60503); experiment: AC assay, Gsα-stimulated mAC9 in membranes from transfected HEK293 cells; conditions: for mAC9 activity (%);(100% = Gsα stimulation) stimulated by 300nM Gsα: single experiments
T5 construct: Human mAC genes were from GenScript and fitted with a C-terminal FLAG-tag; FLAG (C); made in house; host or cells: HEK293, permanently transfected; membrane preparation
Procedure, shortened: as §1

mAC7 = target: T6, mAC7 (Homo sapiens, UniProt P51828); experiment: AC assay, Gsα-stimulated mAC7 in membranes from transfected HEK293 cells; conditions: Figure 5-figure supplement 2 left, 20 µM
T6 construct: Human mAC genes were from GenScript and fitted with a C-terminal FLAG-tag; FLAG (C); made in house; host or cells: HEK293, permanently transfected; membrane preparation
Procedure, shortened: as §1

mAC1 = target: T7, mAC1 (Homo sapiens, UniProt Q08828); experiment: AC assay, Gsα-stimulated mAC1 in membranes from transfected HEK293 cells; conditions: 20 µM fatty acid; 300 nM Gsα; single experiments
T7 construct: Human mAC genes were from GenScript and fitted with a C-terminal FLAG-tag; FLAG (C); made in house; host or cells: HEK293, permanently transfected; membrane preparation
Procedure, shortened: as §1

mAC3 = target: T8, mAC3 (Homo sapiens, UniProt O60266); experiment: AC assay, Gsα-stimulated mAC3 in membranes from transfected HEK293 cells
T8 construct: Human mAC genes were from GenScript and fitted with a C-terminal FLAG-tag; FLAG (C); made in house; host or cells: HEK293, permanently transfected; membrane preparation
Procedure, shortened: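 cAMP formation was quantified by HTRF against a cAMP standard curve, with EC50 or IC50 derived by curve fitting. Reactions contained 1 mM ATP, 2 mM MgCl2, 3 mM creatine phosphate, 60 μg/ml creatine kinase and 50 mM MOPS pH 7.5, using membranes of stably transfected HEK293 cells carrying FLAG-tagged human AC.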

mAC6 = target: T9, mAC6 (Homo sapiens, UniProt O43306); experiment: AC assay, Gsα-stimulated mAC6 in membranes from transfected HEK293 cells; conditions: 20µM fatty acid concentration
T9 construct: Human mAC genes were from GenScript and fitted with a C-terminal FLAG-tag; FLAG (C); made in house; host or cells: HEK293, permanently transfected; membrane preparation
Procedure, shortened: as §1

T5 sequence (O60503 whole entry): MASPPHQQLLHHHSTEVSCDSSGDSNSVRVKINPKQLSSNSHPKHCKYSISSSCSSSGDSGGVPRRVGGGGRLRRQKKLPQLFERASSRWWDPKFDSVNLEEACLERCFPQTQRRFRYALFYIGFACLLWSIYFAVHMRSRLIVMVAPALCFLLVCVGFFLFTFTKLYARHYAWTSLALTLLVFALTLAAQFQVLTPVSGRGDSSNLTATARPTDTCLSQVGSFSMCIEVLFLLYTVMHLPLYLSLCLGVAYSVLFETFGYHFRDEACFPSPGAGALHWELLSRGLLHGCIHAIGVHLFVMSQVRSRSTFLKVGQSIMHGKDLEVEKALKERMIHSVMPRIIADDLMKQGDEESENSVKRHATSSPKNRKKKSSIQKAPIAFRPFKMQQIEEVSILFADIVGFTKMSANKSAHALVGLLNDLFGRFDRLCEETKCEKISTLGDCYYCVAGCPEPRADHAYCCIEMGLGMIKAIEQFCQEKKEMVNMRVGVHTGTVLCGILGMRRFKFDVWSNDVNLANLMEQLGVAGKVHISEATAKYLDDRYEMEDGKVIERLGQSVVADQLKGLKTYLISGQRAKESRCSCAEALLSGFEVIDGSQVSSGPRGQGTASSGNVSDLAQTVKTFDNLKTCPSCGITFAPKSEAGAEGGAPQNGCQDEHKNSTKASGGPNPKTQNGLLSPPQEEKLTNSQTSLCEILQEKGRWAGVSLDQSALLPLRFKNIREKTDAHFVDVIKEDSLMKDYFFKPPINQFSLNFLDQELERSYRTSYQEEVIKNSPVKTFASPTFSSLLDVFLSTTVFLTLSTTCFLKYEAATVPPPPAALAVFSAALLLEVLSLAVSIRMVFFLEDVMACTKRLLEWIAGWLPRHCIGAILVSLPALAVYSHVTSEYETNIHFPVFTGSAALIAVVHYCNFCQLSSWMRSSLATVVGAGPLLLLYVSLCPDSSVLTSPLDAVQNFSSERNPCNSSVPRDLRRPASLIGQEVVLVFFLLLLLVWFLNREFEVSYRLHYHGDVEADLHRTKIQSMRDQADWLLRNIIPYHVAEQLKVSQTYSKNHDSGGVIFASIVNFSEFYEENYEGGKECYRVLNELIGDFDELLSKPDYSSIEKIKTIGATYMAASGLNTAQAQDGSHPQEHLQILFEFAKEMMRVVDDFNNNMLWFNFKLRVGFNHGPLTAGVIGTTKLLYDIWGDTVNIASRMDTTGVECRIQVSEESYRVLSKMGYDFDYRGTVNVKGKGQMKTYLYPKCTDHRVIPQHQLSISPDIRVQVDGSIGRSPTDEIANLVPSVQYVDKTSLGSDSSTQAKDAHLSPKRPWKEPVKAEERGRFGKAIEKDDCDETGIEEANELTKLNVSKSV
T5 sequence (P63092 2-394 Q227L partner): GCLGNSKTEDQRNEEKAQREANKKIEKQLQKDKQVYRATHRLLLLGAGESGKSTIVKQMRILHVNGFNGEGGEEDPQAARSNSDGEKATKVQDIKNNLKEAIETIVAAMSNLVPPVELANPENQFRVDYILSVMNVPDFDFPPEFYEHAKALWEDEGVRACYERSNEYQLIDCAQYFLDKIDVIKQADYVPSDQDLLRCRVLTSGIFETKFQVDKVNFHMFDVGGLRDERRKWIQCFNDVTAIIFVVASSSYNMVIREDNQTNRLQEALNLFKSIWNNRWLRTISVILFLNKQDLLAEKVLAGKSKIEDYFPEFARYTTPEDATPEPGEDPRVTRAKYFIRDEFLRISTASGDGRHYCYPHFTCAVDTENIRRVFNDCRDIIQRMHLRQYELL
T8 sequence (O60266 whole entry): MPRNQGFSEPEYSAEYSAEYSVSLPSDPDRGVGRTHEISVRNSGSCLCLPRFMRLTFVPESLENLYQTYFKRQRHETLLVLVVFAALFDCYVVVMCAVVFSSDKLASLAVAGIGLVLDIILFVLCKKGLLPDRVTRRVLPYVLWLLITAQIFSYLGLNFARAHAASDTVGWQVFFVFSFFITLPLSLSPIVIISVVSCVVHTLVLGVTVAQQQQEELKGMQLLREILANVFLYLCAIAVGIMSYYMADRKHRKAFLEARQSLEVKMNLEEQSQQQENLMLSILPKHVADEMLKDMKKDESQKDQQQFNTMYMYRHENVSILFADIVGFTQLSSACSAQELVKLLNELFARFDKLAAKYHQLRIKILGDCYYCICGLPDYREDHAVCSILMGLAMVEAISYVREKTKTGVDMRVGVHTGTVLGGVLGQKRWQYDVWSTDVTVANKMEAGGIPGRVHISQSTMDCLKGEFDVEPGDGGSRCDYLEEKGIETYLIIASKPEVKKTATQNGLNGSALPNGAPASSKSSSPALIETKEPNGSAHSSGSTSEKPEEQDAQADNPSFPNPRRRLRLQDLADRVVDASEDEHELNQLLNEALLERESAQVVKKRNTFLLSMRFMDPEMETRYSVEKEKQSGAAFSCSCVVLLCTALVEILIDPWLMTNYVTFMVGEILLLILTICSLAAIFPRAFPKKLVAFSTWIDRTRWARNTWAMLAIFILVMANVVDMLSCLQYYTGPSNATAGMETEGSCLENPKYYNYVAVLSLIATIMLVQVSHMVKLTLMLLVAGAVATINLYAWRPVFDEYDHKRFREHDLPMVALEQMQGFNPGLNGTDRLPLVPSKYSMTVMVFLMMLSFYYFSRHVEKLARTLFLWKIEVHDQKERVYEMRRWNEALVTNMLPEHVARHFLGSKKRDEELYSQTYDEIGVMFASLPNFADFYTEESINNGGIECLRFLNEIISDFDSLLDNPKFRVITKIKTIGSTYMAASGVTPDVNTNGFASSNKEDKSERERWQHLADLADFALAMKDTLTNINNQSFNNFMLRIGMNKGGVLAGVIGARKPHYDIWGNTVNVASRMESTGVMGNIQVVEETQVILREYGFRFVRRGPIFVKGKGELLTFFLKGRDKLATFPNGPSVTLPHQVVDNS
T8 sequence (P63092 whole entry Q227L partner): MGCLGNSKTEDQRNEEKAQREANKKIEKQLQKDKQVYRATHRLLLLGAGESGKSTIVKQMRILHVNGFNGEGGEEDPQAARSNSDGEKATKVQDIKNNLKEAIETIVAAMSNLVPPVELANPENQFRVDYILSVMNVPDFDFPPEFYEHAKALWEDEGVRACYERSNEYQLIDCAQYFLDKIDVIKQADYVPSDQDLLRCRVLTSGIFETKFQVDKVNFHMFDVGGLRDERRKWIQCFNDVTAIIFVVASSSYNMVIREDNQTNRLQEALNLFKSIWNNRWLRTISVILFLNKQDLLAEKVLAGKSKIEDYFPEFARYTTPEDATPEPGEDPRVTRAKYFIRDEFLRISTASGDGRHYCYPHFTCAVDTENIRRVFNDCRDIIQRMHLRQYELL
T7 sequence (Q08828 whole entry): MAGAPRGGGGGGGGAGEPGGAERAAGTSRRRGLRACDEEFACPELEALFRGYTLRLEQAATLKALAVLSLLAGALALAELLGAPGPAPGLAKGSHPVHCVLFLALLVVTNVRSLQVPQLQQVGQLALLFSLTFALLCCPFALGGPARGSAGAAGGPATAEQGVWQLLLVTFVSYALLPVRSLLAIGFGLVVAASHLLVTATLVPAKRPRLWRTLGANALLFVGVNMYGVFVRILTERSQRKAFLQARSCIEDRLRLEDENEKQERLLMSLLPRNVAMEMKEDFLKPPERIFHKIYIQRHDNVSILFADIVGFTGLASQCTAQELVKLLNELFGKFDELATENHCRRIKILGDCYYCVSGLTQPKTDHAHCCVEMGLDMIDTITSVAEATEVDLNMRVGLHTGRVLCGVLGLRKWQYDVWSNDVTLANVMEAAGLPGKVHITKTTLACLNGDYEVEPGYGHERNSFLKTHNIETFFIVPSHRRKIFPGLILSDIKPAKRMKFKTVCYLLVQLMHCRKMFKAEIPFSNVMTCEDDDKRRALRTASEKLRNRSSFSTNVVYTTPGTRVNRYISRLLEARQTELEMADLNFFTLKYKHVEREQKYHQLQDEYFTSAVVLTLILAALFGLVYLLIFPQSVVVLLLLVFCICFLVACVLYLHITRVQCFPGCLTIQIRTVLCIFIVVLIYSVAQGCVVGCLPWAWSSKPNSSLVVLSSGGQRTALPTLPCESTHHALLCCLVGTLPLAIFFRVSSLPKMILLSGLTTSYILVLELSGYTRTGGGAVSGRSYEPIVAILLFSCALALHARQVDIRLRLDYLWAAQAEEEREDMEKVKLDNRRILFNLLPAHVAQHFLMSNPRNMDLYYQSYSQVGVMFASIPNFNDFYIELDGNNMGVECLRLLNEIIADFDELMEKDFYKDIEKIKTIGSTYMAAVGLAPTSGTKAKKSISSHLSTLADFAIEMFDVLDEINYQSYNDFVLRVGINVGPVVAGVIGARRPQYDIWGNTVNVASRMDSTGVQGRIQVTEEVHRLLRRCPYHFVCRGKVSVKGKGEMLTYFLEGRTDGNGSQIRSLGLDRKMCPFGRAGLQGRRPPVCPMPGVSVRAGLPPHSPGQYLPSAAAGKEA

In the case of `CCCCCC/C=C\CCCCCCCCCC(=O)O` [cis-Vaccenic acid, cis-Vaccenic ((11E)-octadecenoic) acid], the “mAC8 activity [%] (100% = 300nM Gsα stimulation)” value (mAC8) is reported as 107% and 123%, the “mAC5 activity [%] (100% = 300nM Gsα stimulation)” value (mAC5) is reported as 124% and 95% and the “mAC4 activity [%] (100% = 300nM Gsα stimulation); 20µM fatty acid concentration” value (mAC4) is reported as 78% and 66% and 107%. The “Effect of lipid on 300 nM Gsα-stimulated mAC2” value (mAC2; 20 µM, in words) was “doubled”, the “mAC2 activity [%] (100% = 300nM Gsα stimulation); 20µM fatty acid concentration” value (mAC2; Figure 5-figure supplement 1 left, 20 µM) was 243% and 149% and 146% and 170% and 233% and the “mAC2 activity (%);(100% = Gsα stimulation) stimulated by 300nM Gsα” value (mAC2; cis-Vaccenic acid 1 µM) was 120% and 97% and 119% and 112% and 115%. For the same compound, the “mAC2 activity (%);(100% = Gsα stimulation) stimulated by 300nM Gsα” value (mAC2; cis-Vaccenic acid 3 µM) was 117% and 107% and 130% and 128% and 95%, the “mAC2 activity (%);(100% = Gsα stimulation) stimulated by 300nM Gsα” value (mAC2; cis-Vaccenic acid 6 µM) was 93% and 112% and 130% and 120% and 121% and the “mAC2 activity (%);(100% = Gsα stimulation) stimulated by 300nM Gsα” value (mAC2; cis-Vaccenic acid 10 µM) was 141% and 119% and 166% and 123% and 169%. For the same compound, the “mAC2 activity (%);(100% = Gsα stimulation) stimulated by 300nM Gsα” value (mAC2; cis-Vaccenic acid 20 µM) was 146% and 170% and 233% and 243% and 149%, the EC50 (mAC2; enhancement of 300 nM Gsα-stimulated activity) was 10.6 µM and the activity at 0.3 µM (mAC2; read-out: mAC2 activity (%);(100% = Gsα stimulation) stimulated by 300nM Gsα, cis-Vaccenic acid 0.3 µM) was 100%. For the same compound, the “mAC9 activity (%);(100% = Gsα stimulation) stimulated by 300nM Gsα” value (mAC9; 6 µM fatty acid) was 116% and 153% and 119% and 113%, the “mAC9 activity (%);(100% = Gsα stimulation) stimulated by 300nM Gsα” value (mAC9; 8 µM fatty acid) was 174% and the EC50 (mAC9; enhancement of 300 nM Gsα-stimulated activity, read-out: EC50 for mAC9) was 8.5 µM. The “mAC7 activity [%] (100% = 300nM Gsα stimulation); 20µM fatty acid concentration” value (mAC7) was 148% and 179%, the “mAC1 activity [%] (100% = 300nM Gsα stimulation); 20µM fatty acid concentration” value (mAC1) was 61% and 67% and 86% and the “Effect of lipid on 300 nM Gsα-stimulated mAC3” value (mAC3; 20 µM, in words) was “efficient enhancers”. The “mAC3 activity [%] (100% = 300nM Gsα stimulation)” value (mAC3; fatty acid 20 µM, individual experiments) was 429% and 498% and 460% and 363% and 411% and the “mAC6 activity [%] (100% = 300nM Gsα stimulation)” value (mAC6) was 91% and 114%.
